Data from article PMC11403616, “Arcopilins: A New Family of Staphylococcus aureus Biofilm Disruptors from the Soil Fungus Arcopilus navicularis” (Journal of Medicinal Chemistry, 2024).
In brackets after ≈: the same amount, converted by molar mass. Entries after “also recorded” stand apart in the source; their conditions may differ. Read-outs that look alike come from different tables or passages of the source.

What was measured:
[1] = test system: B. subtilis DSM 10; test: MIC against bacteria (antimicrobial assay); assay type: cell-based, Bacillus subtilis; settings: for MIC: Bacillus subtilis, DSM10, DSM 10, – = no activity observed under test conditions; for MIC B. subtilis: supplement CSV, decimal comma, unit not given, in µg/mL
Procedure: (§1) The antimicrobial activities of compounds 1–7 (Acp A–G) were assessed against different bacterial and fungal strains in addition to their cytotoxic effects on two mammalian cell lines. The tested microorganisms comprised a diverse array of clinically relevant pathogens, encompassing sensitive indicator strains. Among the Gram-positive bacteria were Bacillus subtilis, Staphylococcus aureus, and Mycolicibacterium smegmatis. Gram-negative bacteria included Acinetobacter baumannii, Chromobacterium violaceum, Escherichia coli, and Pseudomonas aeruginosa. Additionally, filamentous fungi such as Mucor hiemalis and yeasts including Candida albicans, Wickerhamomyces anomalus, Rhodotorula glutinis, and Schizosaccharomyces pombe were included. Generally, all compounds presented similar biological properties, summarized in weak or no activity against fungal pathogens as well as weak to moderate inhibition of Gram-positive bacteria (Table 2).
(§2) The antimicrobial and cytotoxic assays were performed according to the methods reported previously.[57]

[2] = test system: S. aureus DSM 346; test: MIC against bacteria (antimicrobial assay); assay type: cell-based, Staphylococcus aureus; settings: for MIC: Staphylococcus aureus, DSM346, DSM 346, – = no activity observed under test conditions; for MIC S. aureus: supplement CSV, decimal comma, unit not given, in µg/mL
Procedure: as §1, §2

[3] = test system: two mammalian cell lines; test: Cytotoxic effects on two mammalian cell lines (summary); assay type: cell-based; settings: KB-3-1 and L929
Procedure: as §1, §2

[4] = test system: M. hiemalis DSM 2656; test: MIC against fungi (antimicrobial assay); assay type: cell-based, Mucor hiemalis
Procedure: as §1, §2

[5] = test system: KB-3-1 (ACC 158); test: Cytotoxicity against mammalian cell lines; assay type: cell-based; settings: Homo sapiens
Procedure: as §1, §2

[6] = test system: L929 (ACC 2); test: Cytotoxicity against mammalian cell lines; assay type: cell-based; settings: Mus musculus
Procedure: as §1, §2

[7] = test system: preformed biofilms of S. aureus DSM 1104; test: Disruption of preformed biofilms, crystal violet assay; assay type: cell-based, Staphylococcus aureus
Procedure: Therefore, Acp A–G were evaluated against preformed biofilms of S. aureus using crystal violet staining.[47]
Cultures of S. aureus DSM 1104 were prepared by inoculating 1 mL aliquots from a frozen stock (−20 °C) into 25 mL of CASO medium and incubating them overnight at 37 °C with shaking at 130 rpm.
The crystal violet assay was performed according to a previously reported procedure.[47] Arcopilins A–G were tested in serial dilutions (250–2 μg/mL), with methanol and microporenic acid A (MAA) as negative and positive controls, respectively. Statistical differences between samples and the controls were determined using a two-tailed Student’s t test, with statistical significance defined as p < 0.01. Statistical analysis was carried out using GraphPad Prism 9 (GraphPad Software, San Diego, CA).[58]

[8] = test system: different bacterial and fungal strains; test: Antimicrobial activities against bacterial and fungal strains (whole panel); assay type: cell-based; settings: whole panel of bacteria and fungi
Procedure: as §1, §2

[9] = test system: human cancer cell lines; settings: cited from earlier work
[10] = KB 3-1, ACC 158, – = no activity observed under test conditions, read-out: IC50 against mammalian cell lines, KB-3-1
[11] = L929, ACC 2, – = no activity observed under test conditions, read-out: IC50 against mammalian cell lines, L929

With `C[C@H](C[C@@H](C)[C@H](C)O)C[C@H](C)C(=O)C1=C(O)/C(=C/c2ccccc2)NC1=O` [Acp B, Arcopilin B] the MIC [1] was 66.7 µg/mL (≈ 180 µM), the “MIC B. subtilis” value [1] was 66,7 and the MIC [2] was 66.7 µg/mL (≈ 180 µM). For the same molecule, the “MIC S. aureus” value [2] was 66,7 and the “cytotoxic properties (in words)” value [3] was “weak or no cytotoxic effects”.
With `C[C@H](C[C@@H](C)[C@H](C)OC=O)C[C@H](C)C(=O)C1=C(O)/C(=C/c2ccccc2)NC1=O` [Acp C, Arcopilin C] the MIC [1] was 33.3 µg/mL (≈ 83.4 µM), the “MIC B. subtilis” value [1] was 33,3 and the MIC [2] was 33.3 µg/mL (≈ 83.4 µM). The “MIC S. aureus” value [2] was 33,3, the MIC ([4]; Mucor hiemalis, DSM2656, DSM 2656, – = no activity observed under test conditions) was 66.7 µg/mL (≈ 167 µM) and the “MIC M. hiemalis” value ([4]; supplement CSV, decimal comma, unit not given, in µg/mL) was 66,7. For the same molecule, the IC50 [5, 10] was 800 ng/mL (≈ 2 µM), the IC50 [6, 11] was 1400 ng/mL (≈ 3.5 µM) and the “efficacy toward preformed biofilms” value ([7]; at 3.9 μg/mL) was 35–45%. The “effectiveness in the dispersal of preformed biofilms” value ([7]; between 7.8 μg/mL and 250 μg/mL) was “approximately 50%” and the “disrupting effect on preformed biofilms (in words)” value ([7]; tested 250–2 μg/mL) was “most promising disrupting effects; also recorded: remarkable effectiveness”.
For `C[C@@H](C[C@H](C)C(=O)C1=C(O)/C(=C/c2ccccc2)NC1=O)C[C@](C)(O)C(=O)CO` [Acp E, Arcopilin E], the “antimicrobial activity (in words)” value [8] was “did not exhibit any antimicrobial activity” and the “cytotoxic properties (in words)” value [3] was “weak or no cytotoxic effects”.
In the case of `C[C@@H](C[C@H](C)C(=O)C1=C(O)/C(=C/c2ccccc2)NC1=O)C[C@](C)(O)[C@@H](O)C(=O)O` [Acp F, Arcopilin F], the “antimicrobial activity (in words)” value [8] is reported as “did not exhibit any antimicrobial activity” and the “cytotoxic properties (in words)” value [3] is reported as “weak or no cytotoxic effects”.
For `CC[C@H](C)[C@@H]1O[C@H](c2c(O)c(-c3ccccc3)cn(O)c2=O)[C@@H](C)C[C@@H]1C` [Acp G, Arcopilin G], the MIC [1] was 8.3 µg/mL (≈ 22.3 µM), the “MIC B. subtilis” value [1] was 8,3 and the MIC [2] was 16.6 µg/mL (≈ 44.7 µM). The “MIC S. aureus” value [2] was 16,6, the IC50 [5, 10] was 0.2 ng/mL (≈ 0.000538 µM) and the IC50 [6, 11] was 0.024 ng/mL (≈ 6.46e-05 µM). The “cytotoxic properties (in words)” value [3] was “most cytotoxic metabolite”.
`C/C(=C\c1csc(C)n1)[C@@H]1C[C@@H]2O[C@]2(C)CCC[C@H](C)[C@H](O)[C@@H](C)C(=O)C(C)(C)[C@@H](O)CC(=O)O1` [Epothilone B, reference compound] showed an IC50 ([5]; KB 3-1, read-out: IC50 against mammalian cell lines, KB-3-1) of 0.0086 ng/mL (≈ 1.69e-05 µM) and an IC50 ([6]; L929, read-out: IC50 against mammalian cell lines, L929) of 0.086 ng/mL (≈ 0.000169 µM).
For `CN(C)[C@@H]1C(O)=C(C(N)=O)C(=O)[C@@]2(O)C(O)=C3C(=O)c4c(O)cccc4[C@@](C)(O)[C@H]3[C@H](O)[C@@H]12` [Oxytetracycline, reference compound], the MIC [1] was 8.3 µg/mL (≈ 18 µM).
In the case of `C/C=C(\C)[C@H]1C(C)=C[C@@]2(C)C[C@@H](C)CC[C@@H]2[C@H]1C(=O)C1=C[C@@](CC(C)C)(OC)NC1=O` [myceliothermophin C], the “antitumor activity against a number of human cancer cell lines” value (from here on “antitumor activity against a number”) [9] is listed as “potent antitumor activity”.
For `C/C=C(\C)[C@H]1C(C)=C[C@@]2(C)C[C@@H](C)CC[C@@H]2[C@H]1C(=O)C1=C[C@](CC(C)C)(OC)NC1=O` [myceliothermophin D], the “antitumor activity against a number” value [9] is given as “potent antitumor activity”.
For myceliothermophin E, the “antitumor activity against a number” value [9] is listed as “potent antitumor activity”.
